Source: patent US20220401564A1 (DANA-FARBER CANCER INSTITUTE, INC., priority 2019, published 2022)

Legend:
HDAC3 = HDAC3 (Homo sapiens, UniProt O15379); test: Change in cellular protein abundance (TMT proteomics) in Kelly cells; type: cell-based; set-up: relative change in relative protein abundance with treatment of Kelly cells; endogenous in cells; host or cells: Kelly cells; settings: scatter plots FIG. 1 and FIG. 3
Method: Lysis buffer (8 M Urea, 50 mM NaCl, 50 mM 4-(2hydroxyethyl)-1-piperazineethanesulfonic acid (EPPS) pH 8.5, protease and phosphatase inhibitors from Roche®) were added to the cell pellets and homogenized by 20 passes through a 21 gauge (1.25 in. long) needle to achieve a cell lysate with a protein concentration between 1-4 mg mL-1. A micro-BCA assay (Pierce™) was used to determine the final protein concentration in the cell lysate. 200 μg of protein for each sample were reduced and alkylated as described in Donovan et al., Elife 7:e38430 (2018).
Proteins were precipitated using methanol/chloroform. Four volumes of methanol were added to the cell lysate, followed by one volume of chloroform, and finally three volumes of water. The mixture was vortexed and centrifuged to separate the chloroform phase from the aqueous phase. The precipitated protein was washed with three volumes of methanol, centrifuged and the resulting washed precipitated protein was allowed to air dry. The precipitated protein was resuspended in 4 M Urea, 50 mM HEPES pH 7.4, followed by dilution to 1 M urea with the addition of 200 mM EPPS, pH 8. Proteins were first digested with LysC (1:50; enzyme:protein) for 12 hours at room temperature. The LysC digestion was diluted to 0.5 M Urea with 200 mM EPPS pH 8 followed by digestion with trypsin (1:50; enzyme:protein) for 6 hours at 37° C. Tandem mass tag (TMT) reagents (Thermo Fisher Scientific) were dissolved in anhydrous acetonitrile (ACN) according to manufacturer's instructions.
Anhydrous ACN was added to each peptide sample to a final concentration of 30% v/v, and labeling was induced with the addition of TMT reagent to each sample at a ratio of 1:4 peptide:TMT label. The 10-plex labeling reactions were performed for 1.5 hours at room temperature and the reaction quenched by the addition of hydroxylamine to a final concentration of 0.3% for 15 minutes at room temperature. The sample channels were combined at a 1:1:1:1:1:1:1:1:1:1:1 ratio, desalted using Cis solid phase extraction cartridges (Waters®) and analyzed by LC-MS for channel ratio comparison. Samples were then combined using the adjusted volumes determined in the channel ratio analysis and dried down in a speed vacuum. The combined sample was then resuspended in 1% formic acid, and acidified (pH 2-3) before being subjected to desalting with C18 SPE (Sep-Pak®, Waters®). Samples were then offline fractionated into 96 fractions by high pH reverse-phase HPLC (Agilent® LC1260) through an aeris peptide xb-c18 column (Phenomenex®) with mobile phase A containing 5% acetonitrile and 10 mM NH4HCO3 in LC-MS grade H2O, and mobile phase B containing 90% acetonitrile and 10 mM NH4HCO3 in LC-MS grade H2O (both pH 8.0). The 96 resulting fractions were then pooled in a non-continuous manner into 24 fractions and these fractions were used for subsequent mass spectrometry analysis.
Data were collected using an Orbitrap Fusion™ Lumos™ mass spectrometer (Thermo Fisher Scientific, San Jose, Calif., USA) coupled with a Proxeon EASY-nLC™ 1200 LC pump (Thermo Fisher Scientific). Peptides were separated on an EasySpray™ ES803 75 μm inner diameter microcapillary column (ThermoFisher Scientific).
Each analysis used an MS3-based TMT method as described previously. The data were acquired using a mass range of m z 340-1350, resolution 120,000, automatic gain control (AGC) target 1×10^6, maximum injection time 100 ms, dynamic exclusion of 120 seconds for the peptide measurements in the Orbitrap Fusion™ Lumos™ mass spectrometer. Data dependent MS2 spectra were acquired in the ion trap with a normalized collision energy (NCE) set at 55%, AGC target set to 1.5×10^5 and a maximum injection time of 150 ms. […]

VHL = target: T1, VHL (Homo sapiens, UniProt P40337); test: Cellular VHL engagement assay (BRD4BD2-GFP / mCherry reporter cells); type: cell-based; settings: with 250 nM AT1, 5 h
T1 construct: Cells stably expressing the BRD4BD2-GFP with mCherry reporter (40) were seeded; endogenous in cells
T1 sequence (P40337 whole entry, species assumed): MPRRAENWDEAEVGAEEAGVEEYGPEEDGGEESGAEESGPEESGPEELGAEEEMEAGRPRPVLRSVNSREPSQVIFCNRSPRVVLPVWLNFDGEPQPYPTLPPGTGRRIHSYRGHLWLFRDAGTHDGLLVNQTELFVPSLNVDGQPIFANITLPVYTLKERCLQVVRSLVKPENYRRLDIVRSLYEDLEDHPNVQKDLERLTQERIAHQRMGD
Method: Cells stably expressing the BRD4BD2-GFP with mCherry reporter (40) were seeded at 30-50% confluency in 384-well plates with 50 μL per well of FluoroBrite™ DMEM media (Thermo Fisher Scientific, A18967) supplemented with 10% FBS a day before compound treatment. Compounds and 250 nM AT1((2S,4R)-1-(2R)-2-Acetamido-3-[[6-[2-[(6S)-4-(4-chlorophenyl)-2,3,9-trimethyl-6H-thieno[3,2-f][1,2,4]triazolo[4,3-a][1,4]diazepin-6-yl]acetamido]hexyl]thio]-3-methylbutanoyl]-4-hydroxy-N-[4-(4-methylthiazol-5-yl)benzyl)pyrrolidinine-2-carboxamide) were dispensed using a D300e Digital Dispenser (HP), normalized to 0.5% DMSO, and incubated with the cells for 5 h. The assay plate was imaged immediately using an Acumen® High Content Imager (TTP Labtech) with 488 nm and 561 nm lasers in a […] grid per well format. The resulting images were analyzed using CellProfiler™.
A series of image analysis steps (an ‘image analysis pipeline’) was constructed. First, the red and green channels were aligned and cropped to target the middle of each well (to avoid analysis of the heavily clumped cells at the edges). A background illumination function was calculated for both red and green channels of each well individually and subtracted to correct for illumination variations across the 384-well plate from various sources of error. An additional step was then applied to the green channel to suppress the analysis of large auto fluorescent artifacts and enhance the analysis of cell specific fluorescence by way of selecting for objects under a given size (30 A.U.) and with a given shape (speckles). mCherry-positive cells were then identified in the red channel by filtering for objects 8-60 pixels in diameter and by using intensity to distinguish between clumped objects. The green channel was then segmented into GFP positive and negative areas and objects were labeled as GFP positive if at least 40% of it overlapped with a GFP positive area. The fraction of GFP-positive cells/mCherry-positive cells in each well was then calculated, and the green and red images were rescaled for visualization.

HDAC3, sequence (O15379 whole entry): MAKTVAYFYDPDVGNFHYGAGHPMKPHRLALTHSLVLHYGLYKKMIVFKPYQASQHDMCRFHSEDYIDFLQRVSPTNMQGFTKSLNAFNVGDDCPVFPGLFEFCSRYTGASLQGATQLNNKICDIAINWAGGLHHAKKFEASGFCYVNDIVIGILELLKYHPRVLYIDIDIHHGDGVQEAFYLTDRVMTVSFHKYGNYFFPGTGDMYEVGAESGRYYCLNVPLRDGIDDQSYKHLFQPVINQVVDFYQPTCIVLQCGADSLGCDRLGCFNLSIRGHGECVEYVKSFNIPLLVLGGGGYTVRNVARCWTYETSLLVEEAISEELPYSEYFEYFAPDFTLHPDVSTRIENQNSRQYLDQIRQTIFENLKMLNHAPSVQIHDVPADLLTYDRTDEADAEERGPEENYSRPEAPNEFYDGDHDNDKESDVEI

| Structure (SMILES) | HDAC3 protein levels, relative protein abundance compared to DMSO control (HDAC3) | IC50 (VHL) [µM] |
| --- | --- | --- |
| Cc1ncsc1-c1ccc([C@H](C)NC(=O)[C@@H]2C[C@@H](O)CN2C(=O)[C@@H](NC(=O)CCOCCOCCOCCN(CCc2c[nH]c3ccccc23)Cc2ccc(/C=C/C(=O)Nc3ccccc3N)cc2)C(C)(C)C)cc1 [Compound 11, (2S,4R)-1-((S)-3-(4-((E)-3-((2-aminophenyl)amino)-3-oxoprop-1-en-1-yl)benzyl)-17-(tert-butyl)-1-(1H-indol-3-yl)-15-oxo-6,9,12-trioxa-3,16-diazaoctadecan-18-oyl)-4-hydroxy-N—((S)-1-(4-(4-methylthiazol-5-yl)phenyl)ethyl)pyrrolidine-2-carboxamide] | significant and selective reduction | – |
| Cc1ncsc1-c1ccc(CNC(=O)[C@@H]2C[C@@H](O)CN2C(=O)[C@@H](NC(=O)C2(F)CC2)C(C)(C)C)c(OCCOCCOCCN(CCc2c[nH]c3ccccc23)Cc2ccc(/C=C/C(=O)NO)cc2)c1 [Compound 8, (2S,4R)—N-(2-(2-(2-(2-((2-(1H-indol-3-yl)ethyl)(4-((E)-3-(hydroxyamino)-3-oxoprop-1-en-1-yl)benzyl)amino)ethoxy)ethoxy)ethoxy)-4-(4-methylthiazol-5-yl)benzyl)-1-((S)-2-(1-fluorocyclopropane-1-carboxamido)-3,3-dimethylbutanoyl)-4-hydroxypyrrolidine-2-carboxamide] | – | 10.1 |
| Cc1ncsc1-c1ccc([C@H](C)NC(=O)[C@@H]2C[C@@H](O)CN2C(=O)[C@@H](NC(=O)CCOCCOCCOCCOCCN(CCc2c[nH]c3ccccc23)Cc2ccc(/C=C/C(=O)NO)cc2)C(C)(C)C)cc1 [Compound 4] | – | 22.9 |
| Cc1ncsc1-c1ccc([C@H](C)NC(=O)[C@@H]2C[C@@H](O)CN2C(=O)[C@@H](NC(=O)CCOCCOCCN(CCc2c[nH]c3ccccc23)Cc2ccc(/C=C/C(=O)Nc3ccccc3N)cc2)C(C)(C)C)cc1 [Compound 10] | significant and selective reduction | 9 |

Next, values leading:

| HDAC3 protein levels, relative protein abundance compared to DMSO control (HDAC3) | IC50 (VHL) [µM] | Structure (SMILES) |
| --- | --- | --- |
| significant and selective reduction | – | Cc1ncsc1-c1ccc([C@H](C)NC(=O)[C@@H]2C[C@@H](O)CN2C(=O)[C@@H](NC(=O)CCOCCOCCOCCOCCN(CCc2c[nH]c3ccccc23)Cc2ccc(/C=C/C(=O)Nc3ccccc3N)cc2)C(C)(C)C)cc1 [Compound 12, (2S,4R)-1-((S)-3-(4-((E)-3-((2-aminophenyl)amino)-3-oxoprop-1-en-1-yl)benzyl)-20-(tert-butyl)-1-(1H-indol-3-yl)-18-oxo-6,9,12,15-tetraoxa-3,19-diazahenicosan-21-oyl)-4-hydroxy-N—((S)-1-(4-(4-methylthiazol-5-yl)phenyl)ethyl)pyrrolidine-2-carboxamide] |
| significant and selective reduction | 15.1 | Cc1ncsc1-c1ccc([C@H](C)NC(=O)[C@@H]2C[C@@H](O)CN2C(=O)[C@@H](NC(=O)CCOCCOCCOCCN(CCc2c[nH]c3ccccc23)Cc2ccc(/C=C/C(=O)NO)cc2)C(C)(C)C)cc1 [Compound 3, (2S,4R)-1-((S)-17-(tert-butyl)-3-(4-((E)-3-(hydroxyamino)-3-oxoprop-1-en-1-yl)benzyl)-1-(1H-indol-3-yl)-15-oxo-6,9,12-trioxa-3,16-diazaoctadecan-18-oyl)-4-hydroxy-N—((S)-1-(4-(4-methylthiazol-5-yl)phenyl)ethyl)pyrrolidine-2-carboxamide] |
| significant and selective reduction | 19.3 | Cc1ncsc1-c1ccc([C@H](C)NC(=O)[C@@H]2C[C@@H](O)CN2C(=O)[C@@H](NC(=O)CCOCCOCCOCCOCCOCCN(CCc2c[nH]c3ccccc23)Cc2ccc(/C=C/C(=O)NO)cc2)C(C)(C)C)cc1 [Compound 5, (2S,4R)-1-((S)-23-(tert-butyl)-3-(4-((E)-3-(hydroxyamino)-3-oxoprop-1-en-1-yl)benzyl)-1-(1H-indol-3-yl)-21-oxo-6,9,12,15,18-pentaoxa-3,22-diazatetracosan-24-oyl)-4-hydroxy-N—((S)-1-(4-(4-methylthiazol-5-yl)phenyl)ethyl)pyrrolidine-2-carboxamide] |
